Experiments:
Experiment in all cases: relative viability (nuclei count vs DMSO), 5 days (fraction); higher = more cells survive
[1] = test system: BEN
Procedure, shortened: (§1)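 Relative viability was taken as the ratio of nuclei in treated wells to nuclei in vehicle wells. Lung cancer cell lines in 1536-well plates received compounds by pin tool one day after seeding, either one drug alone or a fixed anchor-drug dose plus five library-drug doses (not always all listed) in √10 steps. Nuclei were counted on 4× images after 5 days of treatment, and values are medians of duplicate plates.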

[2] = test system: EMC-BAC-2
Procedure, shortened: as §1

[3] = test system: H3255
Procedure, shortened: as §1

[4] = test system: HOP-62
Procedure, shortened: as §1

[5] = test system: LCLC-97TM1
Procedure, shortened: as §1

[6] = test system: LXF-289
Procedure, shortened: as §1

[7] = test system: NCI-H1650
Procedure, shortened: as §1

[8] = test system: NCI-H1915
Procedure, shortened: as §1

[9] = test system: NCI-H1993
Procedure, shortened: as §1

[10] = test system: NCI-H2009
Procedure, shortened: as §1

[11] = test system: NCI-H2023
Procedure, shortened: as §1

[12] = test system: NCI-H2085
Procedure, shortened: as §1

[13] = test system: NCI-H2126
Procedure, shortened: as §1

[14] = test system: NCI-H2342
Procedure, shortened: as §1

[15] = test system: NCI-H2347
Procedure, shortened: as §1

[16] = test system: NCI-H322M
Procedure, shortened: as §1

[17] = test system: NCI-H358
Procedure, shortened: as §1

[18] = test system: NCI-H647
Procedure, shortened: as §1

[19] = test system: NCI-H661
Procedure, shortened: as §1

[20] = test system: NCI-H727
Procedure, shortened: as §1

[21] = test system: PC-14
Procedure, shortened: as §1

[22] = test system: SK-LU-1
Procedure, shortened: as §1

[23] = test system: SW 1573
Procedure, shortened: as §1

Clc1ccc(Nc2nnc(Cc3ccncc3)c3ccccc23)cc1 [Vatalanib] + O=C(c1cc(Cc2n[nH]c(=O)c3ccccc23)ccc1F)N1CCN(C(=O)C2CC2)CC1 [Olaparib] (partner 8 µM)
relative viability ([1]; first compound 0.04 µM): 1.03
relative viability ([1]; first compound 0.1265 µM): 1.01
relative viability ([1]; first compound 0.4 µM): 1.31
relative viability ([1]; first compound 1.265 µM): 1.04
relative viability ([1]; first compound 4 µM): 0.877
relative viability ([2]; first compound 0.04 µM): 0.476
relative viability ([2]; first compound 0.1265 µM): 0.476
relative viability ([2]; first compound 0.4 µM): 0.497
relative viability ([2]; first compound 4 µM): 0.492
relative viability ([3]; first compound 0.04 µM): 0.555
relative viability ([3]; first compound 0.1265 µM): 0.579
relative viability ([3]; first compound 0.4 µM): 0.596
relative viability ([3]; first compound 1.265 µM): 0.576
relative viability ([3]; first compound 4 µM): 0.543
relative viability ([4]; first compound 0.04 µM): 0.385
relative viability ([4]; first compound 0.1265 µM): 0.389
relative viability ([4]; first compound 0.4 µM): 0.523
relative viability ([4]; first compound 1.265 µM): 0.41
relative viability ([4]; first compound 4 µM): 0.419
relative viability ([5]; first compound 0.04 µM): 0.357
relative viability ([5]; first compound 0.1265 µM): 0.375
relative viability ([5]; first compound 0.4 µM): 0.338
relative viability ([5]; first compound 1.265 µM): 0.39
relative viability ([5]; first compound 4 µM): 0.345
relative viability ([6]; first compound 0.04 µM): 1.04
relative viability ([6]; first compound 0.1265 µM): 1
relative viability ([6]; first compound 0.4 µM): 1.13
relative viability ([6]; first compound 1.265 µM): 0.975
relative viability ([6]; first compound 4 µM): 1.03
relative viability ([7]; first compound 0.04 µM): 0.985
relative viability ([7]; first compound 0.1265 µM): 0.734
relative viability ([7]; first compound 0.4 µM): 0.852
relative viability ([7]; first compound 1.265 µM): 0.74
relative viability ([7]; first compound 4 µM): 0.798
relative viability ([8]; first compound 0.04 µM): 0.258
relative viability ([8]; first compound 0.1265 µM): 0.265
relative viability ([8]; first compound 0.4 µM): 0.275
relative viability ([8]; first compound 1.265 µM): 0.233
relative viability ([8]; first compound 4 µM): 0.253
relative viability ([9]; first compound 0.04 µM): 0.587
relative viability ([9]; first compound 0.1265 µM): 1.08
relative viability ([9]; first compound 0.4 µM): 0.879
relative viability ([9]; first compound 1.265 µM): 1.11
relative viability ([9]; first compound 4 µM): 1.01
relative viability ([10]; first compound 0.04 µM): 0.703
relative viability ([10]; first compound 0.1265 µM): 0.623
relative viability ([10]; first compound 0.4 µM): 0.675
relative viability ([10]; first compound 1.265 µM): 0.672
relative viability ([10]; first compound 4 µM): 0.594
relative viability ([11]; first compound 0.04 µM): 0.403
relative viability ([11]; first compound 0.1265 µM): 0.444
relative viability ([11]; first compound 0.4 µM): 0.447
relative viability ([11]; first compound 1.265 µM): 0.48
relative viability ([11]; first compound 4 µM): 0.422
relative viability ([12]; first compound 0.04 µM): 0.839
relative viability ([12]; first compound 0.1265 µM): 0.81
relative viability ([12]; first compound 0.4 µM): 0.812
relative viability ([12]; first compound 1.265 µM): 0.795
relative viability ([12]; first compound 4 µM): 0.727
relative viability ([13]; first compound 0.04 µM): 0.888
relative viability ([13]; first compound 0.1265 µM): 0.926
relative viability ([13]; first compound 0.4 µM): 0.938
relative viability ([13]; first compound 1.265 µM): 0.85
relative viability ([13]; first compound 4 µM): 0.966
relative viability ([14]; first compound 0.04 µM): 0.397
relative viability ([14]; first compound 0.1265 µM): 0.452
relative viability ([14]; first compound 0.4 µM): 0.461
relative viability ([14]; first compound 1.265 µM): 0.365
relative viability ([14]; first compound 4 µM): 0.471
relative viability ([15]; first compound 0.04 µM): 0.647
relative viability ([15]; first compound 0.1265 µM): 0.538
relative viability ([15]; first compound 0.4 µM): 0.643
relative viability ([15]; first compound 1.265 µM): 0.623
relative viability ([15]; first compound 4 µM): 0.597
relative viability ([16]; first compound 0.04 µM): 0.452
relative viability ([16]; first compound 0.1265 µM): 0.662
relative viability ([16]; first compound 0.4 µM): 0.781
relative viability ([16]; first compound 4 µM): 0.778
relative viability ([17]; first compound 0.04 µM): 0.566
relative viability ([17]; first compound 0.1265 µM): 0.548
relative viability ([17]; first compound 0.4 µM): 0.639
relative viability ([17]; first compound 1.265 µM): 0.769
relative viability ([17]; first compound 4 µM): 0.562
relative viability ([18]; first compound 0.04 µM): 0.612
relative viability ([18]; first compound 0.1265 µM): 0.582
relative viability ([18]; first compound 0.4 µM): 0.582
relative viability ([18]; first compound 1.265 µM): 0.584
relative viability ([18]; first compound 4 µM): 0.531
relative viability ([19]; first compound 0.04 µM): 0.769
relative viability ([19]; first compound 0.1265 µM): 0.757
relative viability ([19]; first compound 0.4 µM): 0.788
relative viability ([19]; first compound 1.265 µM): 0.73
relative viability ([19]; first compound 4 µM): 0.706
relative viability ([20]; first compound 0.1265 µM): 0.772
relative viability ([20]; first compound 0.4 µM): 0.761
relative viability ([20]; first compound 1.265 µM): 0.818
relative viability ([20]; first compound 4 µM): 0.758
relative viability ([21]; first compound 0.04 µM): 0.192
relative viability ([21]; first compound 0.1265 µM): 0.195
relative viability ([21]; first compound 0.4 µM): 0.295
relative viability ([21]; first compound 1.265 µM): 0.276
relative viability ([21]; first compound 4 µM): 0.309
relative viability ([22]; first compound 0.04 µM): 0.438
relative viability ([22]; first compound 0.1265 µM): 0.449
relative viability ([22]; first compound 0.4 µM): 0.52
relative viability ([22]; first compound 1.265 µM): 0.467
relative viability ([22]; first compound 4 µM): 0.365
relative viability ([23]; first compound 0.04 µM): 0.466
relative viability ([23]; first compound 0.1265 µM): 0.521
relative viability ([23]; first compound 0.4 µM): 0.506
relative viability ([23]; first compound 1.265 µM): 0.55
relative viability ([23]; first compound 4 µM): 0.355

— the supplement of paper PMC10307832
